Literature values in patent US11555049B2, “Method for separation and purification of n-acetylglucosamine” (JIANGSU HARVERS BIOTECH CO., LTD., priority 2020, dated 2023).
In brackets after ≈: the same amount, converted by molar mass.

For `CC(=O)N[C@H]1C(O)O[C@H](CO)[C@@H](O)[C@@H]1O` (some centres unmarked) [GlcNAc, N-acetyl-glucosamine], the solubility in water (0° C. water) is given as 140 mg/mL (≈ 633 mM) and the “solubility in organic solvents” value (organic solvents such as ethanol and propanol) is given as “insoluble”.
